Assay results from PubChem BioAssay (NCI).
Where “and” joins values, the source holds several entries; their conditions need not be identical. Equal entries are not always repeated.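 Test compounds were applied to cells in 96-well plates for 48 hours at 5 doses. GI50 marks 50% less growth. The concentration for full growth arrest is given as TGI.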

How the values were obtained:
Assay in all cases: NCI anticancer screen, dose series, 48 h
TK-10 renal = test system: TK-10 renal
UACC-257 melanoma = test system: UACC-257 melanoma
SR leukemia = test system: SR leukemia
K-562 leukemia = test system: K-562 leukemia
SNB-19 CNS = test system: SNB-19 CNS
U251 CNS = test system: U251 CNS
NCI-H460 lung = test system: NCI-H460 lung
COLO 205 colon = test system: COLO 205 colon
SK-MEL-2 melanoma = test system: SK-MEL-2 melanoma
UACC-62 melanoma = test system: UACC-62 melanoma

| Compound | TGI (TK-10 renal) | TGI (UACC-257 melanoma) | TGI (SR leukemia) | TGI (K-562 leukemia) | TGI (SNB-19 CNS) | TGI (U251 CNS) | TGI (NCI-H460 lung) | TGI (COLO 205 colon) | TGI (SK-MEL-2 melanoma) | TGI (UACC-62 melanoma) | GI50 (TK-10 renal) | GI50 (UACC-257 melanoma) | GI50 (SR leukemia) | GI50 (K-562 leukemia) | GI50 (SNB-19 CNS) | GI50 (U251 CNS) | GI50 (NCI-H460 lung) | GI50 (COLO 205 colon) | GI50 (SK-MEL-2 melanoma) | GI50 (UACC-62 melanoma) |
| --- | --- | --- | --- | --- | --- | --- | --- | --- | --- | --- | --- | --- | --- | --- | --- | --- | --- | --- | --- | --- |
| Cc1ccc(S(=O)(=O)N2CCN(C=S)CC2)cc1 | > 100 µM | > 100 µM | > 100 µM | > 100 µM | > 100 µM | > 100 µM | > 100 µM | > 100 µM | > 100 µM | > 100 µM | – | – | – | – | – | – | – | – | – | – |
| CC1=NN(C(=O)Nc2ccc(Cl)cc2)C(=O)C2CCC(=O)N12 (stereo not drawn) | > 100 µM | > 100 µM | > 100 µM | > 100 µM | > 100 µM | > 100 µM | > 100 µM | > 100 µM | > 100 µM | > 100 µM | – | – | – | – | – | – | – | – | – | – |
| N/N=C(\c1nc2ccc([N+](=O)[O-])cc2[nH]c1=O)C(O)c1ccc(Cl)c(Cl)c1 (stereo not drawn) | > 100 µM | > 100 µM | > 100 µM | > 100 µM | > 100 µM | > 100 µM | > 100 µM | > 100 µM | > 100 µM | > 100 µM | – | – | – | – | – | – | – | – | – | – |
| O=C1CC(c2ccccc2)Cc2nc3ccc(Br)cc3cc21 (stereo not drawn) | > 100 µM | > 100 µM | > 36.8 µM | > 100 µM | > 100 µM | > 100 µM | 13.7 µM | 1.8 µM | > 100 µM | > 100 µM | 24.2 µM | 23.6 µM | 0.0855 µM | 0.162 µM | 0.495 µM | 0.514 µM | 0.339 µM | 0.281 µM | 0.283 µM | 0.26 µM |
| CC(C)[C@@](O)(c1ccc2cc(OC(F)F)c(OC(F)F)cc2c1)c1cn[nH]n1 | 32.9 µM | 48.5 µM | 44.7 µM | 55.3 µM | 51.2 µM | 34.7 µM | 37.4 µM | 35.1 µM | 34.3 µM | 31 µM | 14.9 µM | 22.8 µM | 17.3 µM | 19.3 µM | 20.8 µM | 17.4 µM | 18 µM | 17.2 µM | 17.4 µM | 15.1 µM |
| O=Nc1c(-c2c(O)[nH]c3cc(Br)ccc23)[nH]c2ccccc12 | 5.12 µM | 3.95 µM | 64.2 µM | > 100 µM | 16.7 µM | 8.52 µM | 7.57 µM | 2.84 µM | 3.41 µM | 2.95 µM | 0.954 µM | 2.05 µM | 3.26 µM | 1.19 µM | 5.07 µM | 1.87 µM | 1.29 µM | 1.35 µM | 1.11 µM | 1.29 µM |
| COc1cc(/C=C2\CCC/C(=C\c3ccc(O)c(OC)c3)C2=O)ccc1O | 37.2 µM and 11.6 µM | 27 µM and 6.74 µM | – | > 61 µM and 25.7 µM | 22.1 µM and 10.2 µM | 8.89 µM and 4.21 µM | 11.2 µM and 4.96 µM | 24.4 µM and 13.6 µM | 12.7 µM and 4.94 µM | 5.32 µM and 4.06 µM | 2.8 µM | 1.71 µM | 1.08 µM | 2.71 µM | 2.46 µM | 1.62 µM | 2.05 µM | 3.61 µM | 1.96 µM | 1.6 µM |
| O=c1cnnc(N/N=C/c2ccccc2O)[nH]1 | > 100 µM | 6.8 µM | > 100 µM | > 100 µM | > 100 µM | > 100 µM | > 100 µM | > 100 µM | > 100 µM | 7.88 µM | 8.26 µM | 0.489 µM | 1.51 µM | 0.163 µM | 6.41 µM | 2.11 µM | 1.56 µM | 0.33 µM | 21 µM | 1.31 µM |
| O=C(C=P(c1ccccc1)(c1ccccc1)c1ccccc1)CCl | 3.12 µM | 2.59 µM | 10.5 µM | 9.12 µM | 15.1 µM | 3.7 µM | 3.6 µM | 3.66 µM | 3.87 µM | 2.88 µM | 1.69 µM | 1.14 µM | 0.38 µM | 0.844 µM | 3.55 µM | 1.58 µM | 1.52 µM | 1.53 µM | 1.79 µM | 1.14 µM |
| O=c1c2ccccc2c(/C=N\NC2=NCCN2)c2oc3ccccc3n12 | 31.3 µM | > 100 µM | > 100 µM | > 100 µM | 51.3 µM | 51.2 µM | 39.5 µM | 38.7 µM | 87.6 µM | 33.4 µM | 16.3 µM | > 100 µM | 6.12 µM | 22.2 µM | 22.5 µM | 18.7 µM | 17.8 µM | 18.8 µM | 21.8 µM | 16.3 µM |
| O=[N+]([O-])c1ccc(C(Cl)C(Cl)c2ccc(C(Cl)C(Cl)c3ccc([N+](=O)[O-])cc3[N+](=O)[O-])cc2)c([N+](=O)[O-])c1 (stereo not drawn) | 14.5 µM and 2.5 µM | 5.77 µM | > 62 µM | 0.438 µM | 18.1 µM | 3.03 µM | 2.15 µM and 0.723 µM | 1.99 µM | 3.27 µM and 0.472 µM | 2.37 µM and 0.623 µM | 0.536 µM | – | – | – | – | – | 0.249 µM | – | 0.231 µM | 0.247 µM |
| CCC1C(C(=O)Nc2ccccc2C)=C(C)NC(C)=C1c1ccccc1C (stereo not drawn) | > 100 µM | > 100 µM | > 76.7 µM | > 100 µM | > 100 µM | > 100 µM | > 67.1 µM | > 100 µM | > 100 µM | > 100 µM | – | – | – | – | – | – | – | – | – | – |
| Cc1ccc(NC(=O)CC/C(CC(=O)C(C)(C)C)=N\NC(=O)C[n+]2ccccc2)cc1C | > 100 µM | > 100 µM | > 100 µM | > 100 µM | > 100 µM | > 100 µM | > 100 µM | > 100 µM | > 100 µM | > 100 µM | – | – | – | – | – | – | – | – | – | – |
